Experiment [1] deals with T1, PfGSK-3 (Plasmodium falciparum, UniProt O77344).
T1 construct: 6xHis; made in house; host or cells: Escherichia coli C41
T1 sequence (O77344 1-440): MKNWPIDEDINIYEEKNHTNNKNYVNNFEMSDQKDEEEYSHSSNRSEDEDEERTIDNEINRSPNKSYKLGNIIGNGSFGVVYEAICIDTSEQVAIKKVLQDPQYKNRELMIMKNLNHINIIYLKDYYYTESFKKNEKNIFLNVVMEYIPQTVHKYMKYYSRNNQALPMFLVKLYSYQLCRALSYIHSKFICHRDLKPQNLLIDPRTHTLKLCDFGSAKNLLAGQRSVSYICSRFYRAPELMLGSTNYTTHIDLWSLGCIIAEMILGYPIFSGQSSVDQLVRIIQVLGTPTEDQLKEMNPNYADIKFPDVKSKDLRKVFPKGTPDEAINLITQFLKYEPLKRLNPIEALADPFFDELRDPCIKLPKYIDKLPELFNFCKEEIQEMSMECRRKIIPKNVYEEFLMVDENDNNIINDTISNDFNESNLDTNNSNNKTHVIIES
Type of experiment: biochemical. To be noted: 15 µM ATP; mean of two determinations, range in brackets; read-out: IC50 [µM], PfGSK-3 (radiometric). Here is the method:
Recombinant GST-PfGSK-His was expressed in Rosetta 2 (DE3) cells and purified on cobalt affinity resin as described previously. Recombinant PfGSK-3 ([…]) was assayed with 48 µM GS-1 peptide as a substrate, in 25 mM Tris–HCl pH 7.5, 10 mM MgCl2, 1 mM EGTA, 1 mM EDTA, 0.5 mg/mL BSA, 5 mM DTT, 2 µg/mL heparin, in the presence of 15 µM [γ-^32P] ATP (3000 Ci/mmol; 1 mCi/mL) (Perkin-Elmer, USA) in a final volume of 25 µL. After 30 min incubation at 30 °C, 8 µL aliquots were spotted onto 1 × 1 cm pieces of P81 phosphocellulose paper (Reaction Biology, Malvern, PA, USA) and 20 s later, the filters were washed five times (for at least 5 min each time) in a solution of 10 mL phosphoric acid/L water. Filters were rinsed in acetone and the dried filters and radioactivity was measured by Cherenkov counting. Blank values were subtracted and activities were expressed in percentage of the maximal activity, i.e. in the absence of inhibitors. Controls were performed with appropriate dilutions of dimethylsulfoxide.

Experiment [2] addresses HsGSK-3 (Homo sapiens, UniProt P49841). The experiment can be described thus: Kinase-Glo Plus assay for inhibition of HsGSK-3. Type of experiment: biochemical. To be noted: 6 µM ATP; mean of three determinations, range in brackets. On the procedure:
Kinase reaction mix was transferred to a solid white 384 well plate (NUNC, Thermo Scientific) and kinase reaction was stopped by adding 5 μL RT Kinase-Glo reagent. After 10 min luminescence was measured in an EnVision multilabel plate reader (Perkin Elmer, integration time 0.5 s/well). […] All samples were normalized to a negative control (reaction without kinase). Data points were plotted into Graphpad Prism, normalized to a DMSO control and IC50 values were calculated using nonlinear regression.
(Kinase-Glo reads ATP consumption through a luciferase reaction.)

HsGSK-3, sequence (P49841 whole entry): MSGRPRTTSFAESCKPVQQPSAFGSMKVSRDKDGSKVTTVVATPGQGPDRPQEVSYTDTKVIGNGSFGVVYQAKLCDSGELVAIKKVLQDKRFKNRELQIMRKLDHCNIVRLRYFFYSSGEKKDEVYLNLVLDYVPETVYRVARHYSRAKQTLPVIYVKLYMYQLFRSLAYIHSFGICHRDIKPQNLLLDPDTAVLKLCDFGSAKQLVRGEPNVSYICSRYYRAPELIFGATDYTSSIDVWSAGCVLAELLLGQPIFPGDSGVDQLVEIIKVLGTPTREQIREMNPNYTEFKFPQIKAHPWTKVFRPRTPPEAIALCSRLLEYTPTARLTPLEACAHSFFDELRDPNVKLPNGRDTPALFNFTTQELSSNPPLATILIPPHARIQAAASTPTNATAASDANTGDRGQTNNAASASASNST

Broadly, the IC50 is the midpoint of a concentration-inhibition curve. For `CN(C)CCN(C)c1ccc(-c2c(C#N)c(N)nc3sc(C(=O)c4cccc(Cl)c4)c(N)c23)c(Cl)c1` [4h], the half-maximal inhibitory concentration (IC50) in experiment [1] was 0.184 µM; in experiment [2], 40.2 µM.

For the origin of these results see article PMC6429710, “Structure–activity relationships in a series of antiplasmodial thieno[2,3-b]pyridines” (Malaria Journal, 2019).
